Here are results for two compounds from patent US20170027902A1, “Use of a Composition Comprising a Flavonol, A Flavonoid, and a Fatty Acid in the Treatment of Oxidative Injuries Due to Mitochondrial Dysfunction” (priority 2014, published 2017).

The test has as its system primary cultures of mouse cortical neurons. Kind of test: Oxygen glucose deprivation (OGD), cell viability by MTT assay. Format: cell-based. Particulars: for reduction in OGD-induced neuronal cell death / loss of cell viability (increase in neuronal survival): pretreatment 24 hrs before OGD (3 hrs), MTT 24 hrs after OGD; for reduction of loss in cell viability after OGD: treatment 0.5 hrs before OGD, 1 μg/ml, viability 24 hrs later. As for the experimental part: Embryonic day 16 timed pregnant CD1 out-bred mice were obtained from Charles River Laboratories (Charles River; QC, Canada). Primary cortical neuron cultures were prepared from cerebral cortices of wild type (WT) CD1 mouse embryos as described previously, with the following modifications. Pregnant CD1 females were heavily anaesthetized with isoflurane vapor (Benson Medical Industries, Inc., Markham, ON) before being euthanized by decapitation. The embryonic day 16 (E16) fetuses were immediately removed from the sacrificed pregnant females by cesarean section and placed in ice-cold Hank's Balanced Salt Solution (HBSS) (GIBCO; Invitrogen, Amarillo, Calif.). The meninges were removed from the brains and cortices were isolated under a dissecting microscope. The cortices from each embryo were placed in individual wells of a 24-well plate (Corning; Lowell, Mass.), containing 1 ml of ice-cold PBS (GIBCO; […] Under sterile conditions, the tissue was briefly minced, transferred to 15 ml sterile conical tubes (Corning; Lowell, Mass.) and centrifuged at 350×g for 3 min at room temperature. The dissecting solution was discarded and the cortical neurons were then dissociated trituration with fire-polished glass pipettes followed by incubating in 1 ml of 0.1% trypsin solution (0.1% w/v trypsin (Invitrogen, Amarillo, Calif.) in PBS with 1 mM Mg^2+ and 13 mM glucose) at 37° C. for 15 min. The trypsinization was inhibited by the addition of 0.5 ml of trypsin inhibitor solution that also contained DNase I (0.06% w/v trypsin inhibitor (Invitrogen; Amarillo, Calif.) and 0.01% DNase I (Invitrogen; […] The tubes were mixed briefly and the cells were centrifuged at 350×g for 3 min at room temperature. The trypsin and inhibitor solutions were discarded and each cell pellet was suspended in 1 ml of cortical neuron plating medium (Neurobasal medium (Invitrogen, Amarillo, Calif.) with 10% fetal bovine serum (GIBCO; Invitrogen; Amarillo, Calif.), 2% B27 supplement, 1 mM L-glutamine, and 1% Gentamycin (Invitrogen; […] Cortical neurons were plated in 96-well plates (Corning; Lowell, Mass.) that were pre-coated with poly-D-lysine (PDL; Sigma-Aldrich; Oakville, ON) according to the procedure described by the manufacturer. Briefly, plates were coated immediately before use with 100 μg/ml PDL for 5-10 min (50 μl/well), washed three times with tissue-culture grade water and left to dry for 2 h before cells were introduced. Cortical neurons were plated at a concentration of 1×10^6 cells/ml (100 µl/well) and medium was completely changed the day after plating to serum-free cortical neuron medium (Neurobasal medium with 2% B27 supplement, 5 mM HEPES, 0.5 mM L-glutamine, and 20 μg/ml Gentamycin), which was replaced every 3 days in culture. Cultures were maintained in a humidified, 37° C. incubator with 5% CO2. Experiments were performed on the eighth day in vitro (DIV10). […] Glucose-free medium (glucose-free Dulbecco's Modified Eagle Medium (GBSS, Invitrogen; Amarillo, Calif.) containing either epicatechin or quercetin or epicatechin plus quercetin at concentration of 1 μg/ml or 3 μg/ml or the corresponding DMSO control (0.02% DMSO) was placed in a 96-well plate and equilibrated to 0% oxygen in a modular chamber incubator (Billups-Rothenberg; Del Mar, Calif.). The chamber was flushed for 4 min at 20 l/min with an anoxic gas mixture (5% CO2 and Balanced […]; Dartmouth, NS) using a step-down pressure system and placed in a humidified, 37° C. incubator for 12 h. Cortical neuron medium was replaced with OGD-medium (anoxic and glucose-free) and the cultures were placed in the modular chamber incubator. The chamber was flushed again with anoxic gas and placed inside a humidified, 37° C. incubator for 3 hrs. […] Cell viability was assessed 24 hours after the completion of OGD. The culture media was exchanged for MEM media without phenol red containing 0.5 mg/ml MTT (3-[4,5-dimethylthiazol-2-yl]-2,5-diphenyltetrazolium bromide). […]

[1] abbreviates: 1 μg/ml total flavonoid (~3 μM; E+Q 0.5 μg/ml each).
[2] abbreviates: 3 μg/ml total flavonoid (~10 μM; E+Q 1.5 μg/ml each).

As to `Oc1cc(O)c2c(c1)O[C@H](c1ccc(O)c(O)c1)[C@H](O)C2` [E, (2R,3R)-2-(3,4-dihydroxyphenyl)-3,4-dihydro-2H-chromene-3,5,7-triol], the “reduction of loss in cell viability after OGD” value was “did not reduce the loss in cell viability”. Besides, the “reduction in OGD-induced neuronal cell death / loss of cell viability (increase in neuronal survival)” value under setting [1] is reported as “modestly reduced the loss in cell viability”. Besides, the “reduction in OGD-induced neuronal cell death / loss of cell viability (increase in neuronal survival)” value (1 μg/ml total flavonoid (~3 μM; E+Q 0.5 μg/ml each), listed as Epicatechin) was 30%. In addition, under setting [2], the “reduction in OGD-induced neuronal cell death / loss of cell viability (increase in neuronal survival)” value is listed as “protected”.

For `O=c1c(O)c(-c2ccc(O)c(O)c2)oc2cc(O)cc(O)c12` [Q], the “reduction of loss in cell viability after OGD” value was “did not reduce the loss in cell viability”. For the same compound, the “reduction in OGD-induced neuronal cell death / loss of cell viability (increase in neuronal survival)” value under setting [1] was “failed to protect”. Moreover, under setting [2], the “reduction in OGD-induced neuronal cell death / loss of cell viability (increase in neuronal survival)” value is on record as “modestly reduced the loss in cell viability”. Further, the “reduction in OGD-induced neuronal cell death / loss of cell viability (increase in neuronal survival)” value (3 μg/ml total flavonoid (~10 μM; E+Q 1.5 μg/ml each), listed as quercetin) is listed as 30%.
